The source of these data is patent US20060177839A1, “Method for modulating the evolution of a polypeptide encoded by a nucleic acid sequence” (priority 2004, published 2006).

For this assay, the system named is dfrB1 WT gene (dehydrofolate reductase conferring resistance to trimethoprim). The note with it: resistance conferred by dfrB1 WT gene.

`COc1cc(Cc2cnc(N)nc2N)cc(OC)c1OC` [trimethoprim] returned an MIC of 512 micg/ml.
